From PMC8765781, “A platform of assays for the discovery of anti-Zika small-molecules with activity in a 3D-bioprinted outer-blood-retina model” (PLoS ONE, 2022)
Where two headings read alike, the source gives them in different places.

What was measured:
[1] = test system: DENV (Dengue virus type 2, strain New Guinea C)
[2] = test system: mCherry-ZIKV in human neuronal progenitor cells; assay: microbe, parasite or virus in culture; format: cell-based, Zika virus; settings: for IC50: read-out: NPC (ZIKV Antiviral Assays), IC50
[3] = test system: ZIKV-mCherry (Cambodian strain FSS13025); assay: microbe, parasite or virus in culture; format: cell-based, Zika virus
[4] = test system: ZIKV-RLuc (Cambodian strain FSS13025); assay: microbe, parasite or virus in culture; format: cell-based, Zika virus; settings: read-out: Rluc-ZIKV (ZIKV Antiviral Assays), IC50
[5] = test system: human neuronal progenitor cells (NPC)
[6] = test system: wild-type ZIKV (Ugandan MR766 strain) in Vero cells; assay: ZIKV cytopathic effect (CPE) inhibition qHTS assay, CellTiter-Glo readout; format: cell-based, Zika virus; settings: for IC50: read-out: ZIKV-infection (CPE, ZIKV Antiviral Assays), IC50
[7] = test system: caspase-3 activity induced by ZIKV in Vero cells; assay: cells; format: cell-based; settings: read-out: Caspase 3 (ZIKV Antiviral Assays), IC50
[8] = test system: ZIKV-mCherry in 3D-oBRB tissue; format: cell-based, Zika virus
in vitro [9] = settings: African green monkey
[10] = test system: Solute carrier organic anion transporter family member 1B1; settings: cited from earlier work
in vitro [11] = settings: human
[12] = target: Tyrosine-protein phosphatase non-receptor type 1; settings: cited from earlier work
[13] = test system: Transcription factor AP-1; settings: cited from earlier work
in vitro [14] = settings: human; remark: listed apart in the source
[15] = test system: ZIKV-mCherry in iPSC-derived RPE monoculture; format: cell-based, Zika virus
[16] = Zika virus, Neuronal progenitor cell
[17] = Zika virus, Vero, read-out: Log AC50 (M) (converted)

Molecule	ZIKV active Yes/No (ZIKV)	DENV active Yes/No [1]	YFV active Yes/No (YFV (YFV 17D))	CC-v2 (curve class) [2]	Efficacy [2]	Max Resp [2]	CC-v2 (curve class of the dose response curve) [3]	Efficacy (difference between neutral response and maximum compound response) [3]	Max Resp (difference between neutral response and response at highest compound concentration) [3]	CC-v2 (curve class classification of the dose response curve) [6]	Efficacy [6]	WHV active Yes/No (WNV (Kern515/WN02))	AC50 ([3]; Zika virus, Vero) [M]	AC50 [3, 17] [M]	IC50 ([4]; Zika virus, Vero, 48 h) [µM]	AC50 ([6]; Zika virus, Vero) [M]	IC50 ([6]; Zika virus, Vero, 48 h) [µM]	AC50 [6, 17] [M]	IC50 ([7]; Zika virus, Vero, 48 h) [µM]	CC50 at 48 h (in vitro [9]; Vero cells) [µM]	further results
5-methylcytidine [NCGC00484060-01, reference compound]	Yes	No	Yes	-2.2	-64.821	-51.196	-1.2	-45.337	-100.16	-1.2	-42.621	No	–	–	–	–	–	–	–	–	SI value ZIKV (CC50/EC50) (ZIKV): 28; Selectivity Index ZIKV (CC50/EC50) (ZIKV): 28; CC50 (Vero cells): > 50 µM; SI value YFV (CC50/EC50) (YFV (YFV 17D)): 3; Selectivity Index YFV (CC50/EC50) (YFV (YFV 17D)): 3; Log AC50 (M) [2]: -4.4 M; AC50 ([2]; read-out: AC50): 3.98e-05 M; IC50 [2]: 39.8 µM; Log AC50 (M) [3]: -5.0741 M; AC50 ([3]; read-out: AC50): 8.43e-06 M; IC50 [4]: 18.5 µM; CC50 [5]: 19.2 µM; CC50 (HepG2 cells): > 30 µM; Log AC50 (M) [6]: -4.8362 M; Max Resp [6]: -39.681; AC50 ([6]; read-out: AC50): 1.46e-05 M; IC50 [6]: 14.6 µM; IC50 ([7]; ZIKV-infected Vero cells, 48 hr, unit inferred): > 48 µM; SI value WHV (CC50/EC50) (WNV (Kern515/WN02)): 1.8; Selectivity Index WHV (CC50/EC50) (WNV (Kern515/WN02)): 2
C=C(C)[C@@]12O[C@@H]1[C@@]1(C)C(=CC2=O)CC[C@@H](OC(C)=O)[C@@H]1C [NCGC00380955-01, 3-Acetyl-13-deoxyphomenone]	Yes	Yes	Yes	-1.2	-81.826	-89.257	-1.2	-59.673	-100.008	-1.2	-61.612	Yes	1.5e-06	1.5e-06	2.33	4.61e-06	4.61	4.61e-06	1.66	–	Activity against ZIKV (ZIKV): pan-activity against all four screened flaviviruses; SI value ZIKV (CC50/EC50) (ZIKV): 22; Selectivity Index ZIKV (CC50/EC50) (ZIKV): 22; Retention of barrier function (TEER) [8]: 30%; Activity against DENV [1]: pan-activity against all four screened flaviviruses; SI value DENV (CC50/EC50) [1]: 14; Selectivity Index DENV (CC50/EC50) [1]: 14; Activity against YFV (YFV (YFV 17D)): pan-activity against all four screened flaviviruses; SI value YFV (CC50/EC50) (YFV (YFV 17D)): 5; Selectivity Index YFV (CC50/EC50) (YFV (YFV 17D)): 5; Antiviral activity in human NPC [2]: effectively inhibited ZIKV in NPC cells; AC50 [2, 16]: 1.26e-05 M; AC50 ([2]; Zika virus, Neuronal progenitor cell, read-out: Log AC50 (M) (converted)): 1.26e-05 M; IC50 [2, 16]: 12.6 µM; Activity against WNV (WNV (Kern515/WN02)): pan-activity against all four screened flaviviruses; SI value WHV (CC50/EC50) (WNV (Kern515/WN02)): 9; Selectivity Index WHV (CC50/EC50) (WNV (Kern515/WN02)): 9; CC50 (in vitro [9]): > 50 µM
CC1OC(OC2C(OC(=O)[C@]34CCC(C)(C)C[C@H]3C3=CCC5[C@@]6(C)CC[C@H](OC7OC(C(=O)O)C(O)C(O)C7O)C(C)(C)C6CC[C@@]5(C)[C@]3(C)CC4O)OC(CO)C2O)C(O)C(O)C1OC1OCC(O)C(O)C1O (stereo partly shown) [NCGC00381102-01]	–	–	–	–	–	–	-1.4	-69.614	-99.592	-3	-33.279	–	–	–	6.19	1.55e-05	15.5	1.55e-05	> 48	> 50	-Log(IC50) M, Solute carrier organic anion transporter family member 1B1 [10]: Solute carrier organic anion transporter family member 1B1 -Log(IC50) M~5.40~-Log(IC50) M~0.8333~Target
CC1=C[C@H]2O[C@@H]3[C@H](O)[C@@H](O)[C@](C)([C@@]2(CO)C[C@@H]1O)[C@]31CO1 [NCGC00381381-01, T-2 toxin tetraol]	–	–	–	–	–	–	–	–	–	–	–	–	–	–	–	–	–	–	–	–	CC50 (Vero cells; read-out: Cell toxicity counterscreen Vero, CC50): > 50 µM; CC50 (HepG2 cells; read-out: Cell toxicity counterscreen HepG2, CC50): > 30 µM
CC1(C)CC[C@]2(C(=O)O)CC[C@]3(C)C(=CC[C@@H]4[C@@]5(C)CC[C@H](O[C@@H]6O[C@H](C(=O)O)[C@@H](O)[C@H](O)[C@H]6O)C(C)(C)[C@@H]5CC[C@]43C)[C@@H]2C1 [NCGC00384528-01, Calenduloside E]	–	–	–	–	–	–	-1.2	-57.341	-100.305	–	-27.436	–	4.99e-06	4.99e-06	11	1.37e-05	13.7	1.37e-05	0.001	> 50	CC50 (in vitro [11]): > 30 µM; -Log(IC50) M, Tyrosine-protein phosphatase non-receptor type 1 [12]: Tyrosine-protein phosphatase non-receptor type 1 -Log(IC50) M~5.46~-Log(IC50) M~0.7284~Target
CC1(C)CC[C@]2(C(=O)O)CC[C@]3(C)C(=CCC4[C@@]5(C)CC[C@H](O[C@H]6O[C@H](C(=O)O)[C@@H](O)[C@H](O[C@@H]7O[C@H](CO)[C@H](O)[C@H](O)[C@H]7O)[C@H]6O)C(C)(C)C5CC[C@]43C)[C@@H]2C1 (stereo partly shown) [NCGC00385211-01, Calenduloside G]	–	–	–	–	–	–	-1.3	-66.223	-100.305	–	-58.411	–	3.19e-06	3.19e-06	2.2	1.23e-05	12.3	1.23e-05	1.39	–	-Log(IC50) M, Transcription factor AP-1 [13]: Transcription factor AP-1 -Log(IC50) M~4.74~-Log(IC50) M~0.8101~Target; CC50 at 48 h (in vitro [9]): > 50 µM
COc1ccc2c(c1)C=C1Cn3c-2c(C2CCCCC2)c2ccc(cc23)C(=O)N[S+](=O)([O-])N(C)CCOCCN(C)C1=O [NCGC00482982-02]	No	No	No	4	-30.77	-24.808	-1.4	-60.775	-100.29	-2.2	-39.12	No	–	–	20.8	2.59e-05	25.9	2.59e-05	1.66	> 50	CC50 at 24 h (in vitro [14]): > 30 µM; CC50 (in vitro [11]): > 30 µM; IC50 [2, 16]: 5.01 µM
CO[C@@H]1[C@H](N(C)C(=O)c2ccccc2)C[C@H]2O[C@]1(C)n1c3ccccc3c3c4c(c5c6ccccc6n2c5c31)C(=O)NC4 [midostaurin]	–	–	–	–	–	–	–	–	–	–	–	–	–	–	–	–	–	–	–	–	Effect on barrier function [15]: exacerbated the barrier function loss; Retention of barrier function (TEER) [8]: about 40%
O=C(Nc1ccc([N+](=O)[O-])cc1Cl)c1cc(Cl)ccc1O [niclosamide]	–	–	–	–	–	–	–	–	–	–	–	–	–	–	–	–	–	–	–	–	Effect on barrier function [15]: did not recover the barrier function; Effect on barrier function [8]: did not recover the barrier function; Identified as active in CPE assay validation set [6]: identified
